Source: patent publication US12091425B2 (AMGEN INC., priority 2016, dated 2024)
pIC50: −log10 of the molar value.

Legend:
[1] = test system: OPM-2 human multiple myeloma cell line; assay: Cell Viability Assay (OPM-2 10 FBS); format: cell-based; settings: OPM-2 cells, 16 h, CellTiter-Glo
In short: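 OPM-2 myeloma cells, 3000/well in medium with 10% FBS, exposed to serially diluted compounds for 16 h at 37° C./5% CO2. Viability read by CellTiter-Glo luminescence; IC50 from 4-parameter logistic fit.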

[2] = target: T1, Mcl-1/Bim interaction, recombinant human Mcl-1 (171-327) (Homo sapiens, UniProt Q07820); assay: Cell free Mcl-1: Bim Affinity Assay (Mcl-1 HTRF); format: binding; settings: TR-FRET, 0.1 nM Mcl-1 (171-327), 0.05 nM biotin-Bim (51-76)
T1 construct: made in house
In short: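 TR-FRET competition assay with biotinylated human Bim peptide (residues 51-76); reaction plates incubated overnight before reading. IC50 values came from duplicate data fitted to a four-parameter sigmoidal competition curve.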

T1 sequence (Q07820 171-327): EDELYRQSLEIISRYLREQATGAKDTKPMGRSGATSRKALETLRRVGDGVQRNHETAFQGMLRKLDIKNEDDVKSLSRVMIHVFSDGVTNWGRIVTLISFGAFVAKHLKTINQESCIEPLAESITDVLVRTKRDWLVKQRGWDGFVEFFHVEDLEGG

Row | SMILES | pIC50 ([1]; Homo sapiens, OPM-2, 16 h) | pIC50 [2] | pIC50 [1]
1 | O=C1NS(=O)(=O)N2CCOC[C@H]2C/C=C\[C@H](O)[C@@H]2CC[C@H]2CN2C[C@@]3(CCCc4cc(Cl)ccc43)COc3ccc1cc32 (single isomer, unassigned) [Example 344] | 6.04 | 8.68 | –
2 | O=C1NS(=O)(=O)N2CCC[C@H]2C/C=C/[C@H](O)[C@@H]2CC[C@H]2CN2C[C@@]3(CCCc4cc(Cl)ccc43)COc3ccc1cc32 (single isomer, unassigned) [Example 345] | 6.31 | 9.06 | –
3 | CC(=O)O[C@H]1/C=C/C[C@@H]2CCCN2S(=O)(=O)NC(=O)c2ccc3c(c2)N(C[C@@H]2CC[C@H]21)C[C@@]1(CCCc2cc(Cl)ccc21)CO3 (single isomer, unassigned) [Example 346] | 5.64 | 8.72 | –
4 | CC(=O)O[C@H]1/C=C/C[C@H]2CCCN2S(=O)(=O)NC(=O)c2ccc3c(c2)N(C[C@@H]2CC[C@H]21)C[C@@]1(CCCc2cc(Cl)ccc21)CO3 (single isomer, unassigned) [Example 348] | 5.45 | 8.16 | –
5 | CNC(=O)C(OC)C1C=CC2CCC2CN2CC3(CCCc4cc(Cl)ccc43)COc3ccc(cc32)C(=O)NS(=O)(=O)C(C)C(C)C1 (single isomer, unassigned) [Example 361] | 6.29 | 9.28 | –
6 | CNC(=O)[C@@H](OC)[C@@H]1CC[C@@H]2CC[C@H]2CN2C[C@@]3(CCCc4cc(Cl)ccc43)COc3ccc(cc32)C(=O)NS(=O)(=O)[C@H](C)[C@@H](C)C1 (single isomer, unassigned) [Example 363] | – | 9.10 | 6.32
7 | O=C1NS(=O)(=O)[C@H]2CCCC(C2)[C@H](O)[C@@H]2CC[C@H]2CN2C[C@@]3(CCCc4cc(Cl)ccc43)COc3ccc1cc32 (single isomer, unassigned) [Example 364] | – | 8.51 | 4.51
8 | O=C1NS(=O)(=O)[C@H](Cc2nccs2)CC/C=C/[C@H](O)[C@@H]2CC[C@H]2CN2C[C@@]3(CCCc4cc(Cl)ccc43)COc3ccc1cc32 (single isomer, unassigned) [Example 373] | – | 9.14 | 6.39
9 | O=C1NS(=O)(=O)[C@H](Cc2nccs2)CC/C=C\[C@H](O)[C@@H]2CC[C@H]2CN2C[C@@]3(CCCc4cc(Cl)ccc43)COc3ccc1cc32 (single isomer, unassigned) [Example 374] | – | 8.54 | 5.53
10 | COCCO[C@H]1/C=C/C[C@@H](C)CS(=O)(=O)NC(=O)c2ccc3c(c2)N(C[C@@H]2CC[C@H]21)C[C@@]1(CCCc2cc(Cl)ccc21)CO3 (single isomer, unassigned) [Example 375] | – | 8.11 | 5.24
11 | COCCO[C@H]1/C=C/C[C@H](C)CS(=O)(=O)NC(=O)c2ccc3c(c2)N(C[C@@H]2CC[C@H]21)C[C@@]1(CCCc2cc(Cl)ccc21)CO3 (single isomer, unassigned) [Example 376] | – | 9.39 | 6.65
12 | C[C@H]1C/C=C/[C@H](OCCN2CCOCC2)[C@@H]2CC[C@H]2CN2C[C@@]3(CCCc4cc(Cl)ccc43)COc3ccc(cc32)C(=O)NS(=O)(=O)[C@@H]1CC1CC1 (single isomer, unassigned) [Example 386] | – | 9.20 | 6.56
13 | COCC[C@@H]1[C@@H](C)C/C=C/[C@H](O)[C@@H]2CC[C@H]2CN2C[C@@]3(CCCc4cc(Cl)ccc43)COc3ccc(cc32)C(=O)NS1(=O)=O (single isomer, unassigned) [Example 393] | – | 9.67 | 6.86
14 | COCC[C@@H]1[C@@H](C)C/C=C\[C@H](O)[C@@H]2CC[C@H]2CN2C[C@@]3(CCCc4cc(Cl)ccc43)COc3ccc(cc32)C(=O)NS1(=O)=O (single isomer, unassigned) [Example 394] | – | 8.90 | 5.90
15 | COCC[C@H]1[C@@H](C)C/C=C/[C@H](OC)[C@@H]2CC[C@H]2CN2C[C@@]3(CCCc4cc(Cl)ccc43)COc3ccc(cc32)C(=O)NS1(=O)=O (single isomer, unassigned) [Example 396] | – | 9.42 | 6.73
16 | COCCO[C@H]1/C=C/C[C@H](C)[C@@H](CCOC)S(=O)(=O)NC(=O)c2ccc3c(c2)N(C[C@@H]2CC[C@H]21)C[C@@]1(CCCc2cc(Cl)ccc21)CO3 (single isomer, unassigned) [Example 397] | – | 9.64 | 6.84
17 | COCC[C@@H]1[C@@H](C)C/C=C/[C@H](OCCN2CCOCC2)[C@@H]2CC[C@H]2CN2C[C@@]3(CCCc4cc(Cl)ccc43)COc3ccc(cc32)C(=O)NS1(=O)=O (single isomer, unassigned) [Example 398] | – | 9.63 | 7.05
18 | COCCOCC[C@@H]1[C@@H](C)C/C=C/[C@H](O)[C@@H]2CC[C@H]2CN2C[C@@]3(CCCc4cc(Cl)ccc43)COc3ccc(cc32)C(=O)NS1(=O)=O (single isomer, unassigned) [Example 399] | – | 9.62 | 6.78

Row | SMILES | pIC50 ([1]; Homo sapiens, OPM-2, 16 h) | pIC50 [2] | pIC50 [1]
19 | COCCOCC[C@@H]1[C@@H](C)C/C=C/[C@H](O)[C@@H]2CC[C@H]2CN2C[C@@]3(CCCc4cc(Cl)ccc43)COc3ccc(cc32)C(=O)NS1(=O)=O (single isomer, unassigned) [Example 401] | – | 9.27 | 6.34
20 | COCCOCC[C@@H]1[C@@H](C)C/C=C/[C@H](O)[C@@H]2CC[C@H]2CN2C[C@@]3(CCCc4cc(Cl)ccc43)COc3ccc(cc32)C(=O)NS1(=O)=O (single isomer, unassigned) [Example 402] | – | 7.73 | 4.87
21 | C[C@@H]1CC/C=C/[C@H](O[C@@H]2CCOC2=O)[C@@H]2CC[C@H]2CN2C[C@@]3(CCCc4cc(Cl)ccc43)COc3ccc(cc32)C(=O)NS1(=O)=O (single isomer, unassigned) [Example 414] | 6.79 | 9.73 | –
22 | CCC(OC1C=CCCC(C)S(=O)(=O)NC(=O)c2ccc3c(c2)N(CC2CCC21)CC1(CCCc2cc(Cl)ccc21)CO3)C(=O)N(C)C (single isomer, unassigned) [Example 419] | 6.51 | 9.48 | –
23 | CC[C@@H](O[C@H]1/C=C/CC[C@@H](C)S(=O)(=O)NC(=O)c2ccc3c(c2)N(C[C@@H]2CC[C@H]21)C[C@@]1(CCCc2cc(Cl)ccc21)CO3)C(=O)N(C)C (single isomer, unassigned) [Example 421] | – | 9.16 | 6.17
24 | CCC1CCC=CC(OC2CCOC2=O)C2CCC2CN2CC3(CCCc4cc(Cl)ccc43)COc3ccc(cc32)C(=O)NS1(=O)=O (single isomer, unassigned) [Example 424] | 6.61 | 9.30 | –
25 | CC[C@@H]1CC/C=C/[C@H](O[C@H]2CCOC2=O)[C@@H]2CC[C@H]2CN2C[C@@]3(CCCc4cc(Cl)ccc43)COc3ccc(cc32)C(=O)NS1(=O)=O (single isomer, unassigned) [Example 425] | – | 9.40 | 6.52
26 | C[C@@H]1[C@@H](C)C/C=C/[C@H](O[C@H]2CCOC2=O)[C@@H]2CC[C@H]2CN2C[C@@]3(CCCc4cc(Cl)ccc43)COc3ccc(cc32)C(=O)NS1(=O)=O (single isomer, unassigned) [Example 427] | – | 9.38 | 6.69
27 | C[C@@H]1[C@@H](C)C/C=C/[C@H](O[C@@H]2CCOC2=O)[C@@H]2CC[C@H]2CN2C[C@@]3(CCCc4cc(Cl)ccc43)COc3ccc(cc32)C(=O)NS1(=O)=O (single isomer, unassigned) [Example 428] | 6.75 | 9.48 | –
28 | CC(C)C[C@H](O[C@H]1/C=C/C[C@H](C)[C@@H](C)S(=O)(=O)NC(=O)c2ccc3c(c2)N(C[C@@H]2CC[C@H]21)C[C@@]1(CCCc2cc(Cl)ccc21)CO3)C(=O)N(C)C (single isomer, unassigned) [Example 429] | – | 8.38 | 5.88
29 | CC[C@H](O[C@H]1/C=C/C[C@H](C)[C@@H](C)S(=O)(=O)NC(=O)c2ccc3c(c2)N(C[C@@H]2CC[C@H]21)C[C@@]1(CCCc2cc(Cl)ccc21)CO3)C(=O)N(C)C (single isomer, unassigned) [Example 430] | – | 9.13 | 6.66
30 | CC[C@@H](O[C@H]1/C=C/C[C@H](C)[C@@H](C)S(=O)(=O)NC(=O)c2ccc3c(c2)N(C[C@@H]2CC[C@H]21)C[C@@]1(CCCc2cc(Cl)ccc21)CO3)C(=O)N(C)C (single isomer, unassigned) [Example 431] | – | 9.29 | 6.85
31 | CO[C@H]1/C=C/CC[C@@H](CO)S(=O)(=O)NC(=O)c2ccc3c(c2)N(C[C@@H]2CC[C@H]21)C[C@@]1(CCCc2cc(Cl)ccc21)CO3 (single isomer, unassigned) [Example 446] | – | 9.31 | 6.38
32 | CO[C@H]1/C=C/CC[C@@H](C(=O)N(C)C)S(=O)(=O)NC(=O)c2ccc3c(c2)N(C[C@@H]2CC[C@H]21)C[C@@]1(CCCc2cc(Cl)ccc21)CO3 (single isomer, unassigned) [Example 452] | – | 9.56 | 6.11
33 | COC1C=CCCC(C(=O)N(C)C)S(=O)(=O)NC(=O)c2ccc3c(c2)N(CC2CCC21)CC1(CCCc2cc(Cl)ccc21)CO3 (single isomer, unassigned) [Example 453] | – | 8.17 | 4.68
34 | COC[C@@H]1[C@@H](C)C/C=C/[C@H](O)[C@@H]2CC[C@H]2CN2C[C@@]3(CCCc4cc(Cl)ccc43)COc3ccc(cc32)C(=O)NS1(=O)=O (single isomer, unassigned) [Example 455] | 7.15 | 9.78 | –
35 | COC[C@H]1[C@@H](C)C/C=C\[C@H](O)[C@@H]2CC[C@H]2CN2C[C@@]3(CCCc4cc(Cl)ccc43)COc3ccc(cc32)C(=O)NS1(=O)=O (single isomer, unassigned) [Example 457] | 6.53 | 9.58 | –
36 | CC[C@H]1[C@H](OC)C/C=C/[C@H](O)[C@@H]2CC[C@H]2CN2C[C@@]3(CCCc4cc(Cl)ccc43)COc3ccc(cc32)C(=O)NS1(=O)=O (single isomer, unassigned) [Example 459] | – | 8.47 | 5.48
